Test results published in patent publication US6737383B1, “Herbicidal oxadiazolidines” (priority 1999, dated 2004).

Key:
[1] = system: sugar beet; experiment: Test B pre/postemergence sugar beet; assay type: in vivo, Beta vulgaris
Outline: (§1)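 Herbicidal effect was estimated by eye on a ten-point control scale after plants spent twelve to sixteen days in a greenhouse following soil or foliar treatment. Foliar sprays targeted plants at one to four leaves; all doses were formulated in a non-phytotoxic solvent with surfactant.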

[2] = system: pigweed; experiment: Test B pre/postemergence pigweed; assay type: in vivo, Amaranthus retroflexus
Outline: as §1

[3] = system: giant foxtail; experiment: Test B pre/postemergence giant foxtail; assay type: in vivo, Setaria faberii
Outline: as §1

[4] = system: wild oat; experiment: Test B pre/postemergence wild oat; assay type: in vivo, Avena fatua
Outline: as §1

[5] = system: surinam grass; experiment: Test B pre/postemergence surinam grass; assay type: in vivo, Brachiaria decumbens
Outline: as §1

[6] = system: bedstraw; experiment: Test B pre/postemergence bedstraw; assay type: in vivo, Galium aparine
Outline: as §1

[7] = system: blackgrass; experiment: Test B pre/postemergence blackgrass; assay type: in vivo, Alopecurus myosuroides
Outline: as §1

[8] = system: duck salad; experiment: Test B flood test duck salad; assay type: in vivo, Heteranthera limosa
Outline: (§2)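 Plants were grown to the 2-leaf stage before treatment with test chemical, then held in a greenhouse for twelve to sixteen days. Injury was visually rated against untreated controls on a 0–10 scale, where 0 is no effect and 10 is complete control.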

[9] = system: morningglory; experiment: Test B pre/postemergence morningglory; assay type: in vivo, Ipomoea hederacea
Outline: as §1

[10] = system: bamyardgrass; experiment: Test B flood test barnyardgrass; assay type: in vivo, Echinochloa crus-galli
Outline: as §2

[11] = system: rice; experiment: Test B flood test rice; assay type: in vivo, Oryza sativa
Outline: as §2

[12] = system: purple nutsedge; experiment: Test B pre/postemergence purple nutsedge; assay type: in vivo, Cyperus rotundus
Outline: as §1

[13] = system: wheat; experiment: Test B pre/postemergence wheat; assay type: in vivo, Triticum aestivum
Outline: as §1

[14] = system: cocklebur; experiment: Test B pre/postemergence cocklebur; assay type: in vivo, Xanthium strumarium
Outline: as §1

[15] = system: velvetleaf; experiment: Test B pre/postemergence velvetleaf; assay type: in vivo, Abutilon theophrasti
Outline: as §1

[16] = system: crabgrass; experiment: Test B pre/postemergence crabgrass; assay type: in vivo, Digitaria sanguinalis
Outline: as §1

[17] = Preemergence, Rate 62 g/ha, scale of 0 to 10 where 0 is no effect and 10 is complete control
[18] = Preemergence, Rate 250 g/ha, scale of 0 to 10 where 0 is no effect and 10 is complete control
[19] = Preemergence, Rate 500 g/ha, scale of 0 to 10 where 0 is no effect and 10 is complete control
[20] = Rate 62 g/ha, Postemergence, scale 0 to 10 (0 no effect, 10 complete control)
[21] = Rate 125 g/ha, Postemergence, scale of 0 to 10 where 0 is no effect and 10 is complete control
[22] = Rate 250 g/ha, Postemergence, scale of 0 to 10 where 0 is no effect and 10 is complete control
[23] = Rate 500 g/ha, Postemergence, scale 0 to 10, 0 no effect, 10 complete control
[24] = Rate 62 g/ha, headed Pre-emergence (flood test species), scale 0 to 10 (0 no effect, 10 complete control)
[25] = Rate 125 g/ha, Pre-emergence, flood test species, scale 0 to 10 where 0 is no effect and 10 is complete control
[26] = Rate 250 g/ha, Pre-emergence, flood-test species, scale 0 to 10, 0 is no effect, 10 is complete control
[27] = Rate 500 g/ha, Pre-emergence, flood test species, scale 0 to 10 (0 no effect, 10 complete control)

CCc1cccc(CC)c1-n1c(=O)on(C(=O)N(c2ccc(F)cc2)C(C)C)c1=O [Compound 304]
Sugarbeets plant response rating [1, 17]: 0
Sugarbeets plant response rating (0 to 10 scale) ([1]; Preemergence, Rate 125 g/ha): 1
Sugarbeets plant response rating [1, 18]: 6
Sugarbeets plant response rating [1, 19]: 6
Sugarbeets plant response rating [1, 20]: 0
Sugarbeets plant response rating [1, 21]: 0
Plant response rating, Sugarbeets [1, 22]: 0
Redroot pigweed plant response rating [2, 17]: 0
Redroot pigweed plant response rating (0 to 10 scale) ([2]; Preemergence, Rate 125 g/ha): 0
Redroot pigweed plant response rating [2, 18]: 0
Redroot pigweed plant response rating [2, 19]: 0
Redroot pigweed plant response rating [2, 20]: 3
Redroot pigweed plant response rating [2, 21]: 3
Plant response rating, Redroot pigweed [2, 22]: 5
Giant foxtail plant response rating [3, 17]: 0
Giant foxtail plant response rating (0 to 10 scale) ([3]; Preemergence, Rate 125 g/ha): 4
Giant foxtail plant response rating [3, 18]: 6
Giant foxtail plant response rating [3, 19]: 6
Giant foxtail plant response rating [3, 20]: 0
Giant foxtail plant response rating [3, 21]: 0
Plant response rating, Giant foxtail [3, 22]: 0
Wild oats plant response rating [4, 17]: 0
Wild oats plant response rating (0 to 10 scale) ([4]; Preemergence, Rate 125 g/ha): 0
Wild oats plant response rating [4, 18]: 0
Wild oats plant response rating [4, 19]: 0
Wild oats plant response rating [4, 20]: 0
Wild oats plant response rating [4, 21]: 0
Plant response rating, Wild oats [4, 22]: 0
B. signalgrass plant response rating [5, 17]: 0
B. signalgrass plant response rating (0 to 10 scale, 0 is no effect, 10 is complete control) ([5]; Preemergence, Rate 125 g/ha): 0
B. signalgrass plant response rating [5, 18]: 0
B. signalgrass plant response rating [5, 19]: 0
B. signalgrass plant response rating [5, 20]: 0
B. signalgrass plant response rating [5, 21]: 0
Plant response rating, B. signalgrass [5, 22]: 0
B. signalgrass plant response rating [5, 23]: 0
Bedstraw plant response rating [6, 17]: 0
Bedstraw plant response rating (0 to 10 scale) ([6]; Preemergence, Rate 125 g/ha): 0
Bedstraw plant response rating [6, 18]: 0
Bedstraw plant response rating [6, 19]: 0
Bedstraw plant response rating [6, 20]: 0
Bedstraw plant response rating [6, 21]: 0
Blackgrass plant response rating [7, 17]: 0
Blackgrass plant response rating (0 to 10 scale) ([7]; Preemergence, Rate 125 g/ha): 0
Blackgrass plant response rating [7, 18]: 0
Blackgrass plant response rating [7, 19]: 0
Blackgrass plant response rating [7, 20]: 0
Blackgrass plant response rating [7, 21]: 0
Plant response rating, Blackgrass [7, 22]: 0
Blackgrass plant response rating [7, 23]: 4
Ducksalad plant response rating [8, 24]: 0
Ducksalad plant response rating [8, 25]: 0
Ducksalad plant response rating [8, 26]: 0
Ducksalad plant response rating [8, 27]: 0
Morningglory plant response rating [9, 17]: 0
Morningglory plant response rating (0 to 10 scale) ([9]; Preemergence, Rate 125 g/ha): 0
Morningglory plant response rating [9, 18]: 0
Morningglory plant response rating [9, 19]: 0
Morningglory plant response rating [9, 20]: 3
Morningglory plant response rating [9, 21]: 3
Plant response rating, Morningglory [9, 22]: 3
Barnyardgrass plant response rating [10, 24]: 0
Barnyardgrass plant response rating [10, 25]: 0
Barnyardgrass plant response rating [10, 26]: 0
Barnyardgrass plant response rating [10, 27]: 4
Rice plant response rating [11, 24]: 0
Rice plant response rating [11, 25]: 0
Rice plant response rating [11, 26]: 0
Rice plant response rating [11, 27]: 0
Nutsedge plant response rating [12, 17]: 0
Nutsedge plant response rating (0 to 10 scale) ([12]; Preemergence, Rate 125 g/ha): 0
Nutsedge plant response rating [12, 18]: 0
Nutsedge plant response rating [12, 19]: 0
Nutsedge plant response rating [12, 20]: 0
Nutsedge plant response rating [12, 21]: 0
Plant response rating, Nutsedge [12, 22]: 0
Wheat plant response rating [13, 17]: 0
Wheat plant response rating (0 to 10 scale) ([13]; Preemergence, Rate 125 g/ha): 0
Wheat plant response rating [13, 18]: 0
Wheat plant response rating [13, 19]: 0
Wheat plant response rating [13, 20]: 0
Wheat plant response rating [13, 21]: 0
Plant response rating, Wheat [13, 22]: 0
Cocklebur plant response rating (0 to 10 scale) ([14]; Preemergence, Rate 125 g/ha): 0
Cocklebur plant response rating [14, 18]: 0
Cocklebur plant response rating [14, 19]: 0
Cocklebur plant response rating [14, 20]: 0
Cocklebur plant response rating [14, 21]: 0
Plant response rating, Cocklebur [14, 22]: 0
Cocklebur plant response rating [14, 23]: 0
Velvetleaf plant response rating [15, 17]: 0
Velvetleaf plant response rating (0 to 10 scale) ([15]; Preemergence, Rate 125 g/ha): 0
Velvetleaf plant response rating [15, 18]: 0
Velvetleaf plant response rating [15, 19]: 0
Velvetleaf plant response rating [15, 20]: 0
Velvetleaf plant response rating [15, 21]: 0
Plant response rating, Velvetleaf [15, 22]: 0
Crabgrass plant response rating [16, 17]: 3
Crabgrass plant response rating (0 to 10 scale) ([16]; Preemergence, Rate 125 g/ha): 4
Crabgrass plant response rating [16, 18]: 6
Crabgrass plant response rating [16, 19]: 8
Crabgrass plant response rating [16, 20]: 0
Crabgrass plant response rating [16, 21]: 0
Plant response rating, Crabgrass [16, 22]: 0
